Experimental data reported in patent US4923969A, “Preparation of 99m Tc radiopharmaceuticals” (The Commonwealth of Australia, priority 1983, dated 1990).

Assay: Stability of dried 99mTcNCl4- preparation
Type: physicochemical
Procedure: Samples of the ^99m TcNCl4^- preparation were taken to dryness in a rotary evaporator and stored for 24 hours (a) in air at room temperature, (b) at 80° C., and (c) at room temperature and 100% humidity. They were then used to prepare ^99m TcN-DTPA by addition of ligand as before.

[N]#[99Tc-]([Cl])([Cl])([Cl])[Cl].[Na+] [^99m TcNCl4^-, sodium tetrachloronitridotechnetate]
chromatographic behaviour (HPLC) after storage of the dry reagent (24 hours in air at room temperature, at 80° C., or at room temperature and 100% humidity, tested as 99mTcN-DTPA): No significant difference in chromatographic behaviour
stability of the dry preparation for distribution (dry preparation): sufficiently stable to be prepared in a central laboratory or manufacturing site and distributed to users
storage time for which the dry reagent was stable ("stable for up to") (dry, air at room temperature, 80° C., or room temperature and 100% humidity): ≥ 24 h
